{
  "source": "patent US12589158B2",
  "about": "(priority 2022, dated 2026)",
  "key": {"[1]": {"assay": "Pharmacokinetics in cynomolgus monkeys", "conditions": "cynomolgus monkey, in vivo", "protocol": "After subcutaneous or intravenous administration to cynomolgus monkeys, plasma is collected and the drug concentration in plasma is determined to illustrate the in vivo pharmacokinetic properties of the compound according to the present invention. The compound is dissolved in 1.4% PG in 8 mM Na2HPO4 Buffer (pH 7.39), and filtered through a filter membrane (PTFE, 0.45 μm) to obtain 25 and 12.5 nmol/mL solution of the compound respectively. The obtained solutions are administered to cynomolgus monkeys (4-8 kg) at a dose of 25 nmol/kg subcutaneously (s.c.) or 12.5 nmol/kg intravenously (i.v.). […] The blood samples are centrifuged at 2200 g for 10 minutes to obtain a plasma, which is stored at −90° C. to −60° C. for further analysis and assay.\n70.0 μL of thawed plasma sample is taken. 70 μL of acetonitrile (containing 1 ng/ml of the internal standard) is added to precipitate protein. The mixture is vortexed for 1 minute, and centrifuged at 14000 rpm for 10 minutes. 60.0 μL of the supernatant is taken, into which 60.0 μL of 0.5% aqueous formic acid solution is added. The mixture is vortexed for 5 minutes. 10 μL of the mixture solution is sampled and injected into the LC-MS/MS to determine the drug concentration in plasma.\nBased on the drug concentration in plasma of the compounds in the cynomolgus monkeys, the pharmacokinetic parameters are calculated by applying the software Winnolin 8.2 in a non-compartmental model, and the results are shown in Table 9 and Table 10 below."}, "SD male rats": {"test_system": "SD male rats", "format": "in vivo", "protocol": "(§1) 77 SD male rats (SPF grade) are selected and randomly divided into 10 groups based on body weight. Group 1 is the vehicle control group, including 5 animals. […] Group 5 to Group 7 are the groups administrated with the test substance 1; and Group 8 to Group 10 are the groups administrated with the test substance 2, each group including 8 animals, wherein 5 animals for primary test, and 3 animals for toxicokinetics test, and the administration dose is 1, 3 and 10 mg/kg respectively. Each of the above groups is continuously administered twice a week for 2 weeks (administrating at Day 1, Day 5, Day 8, Day 12 and Day 15).\n(§2) During the experiment, the cage condition monitoring, detailed clinical observations, determination of the food consumption, determination of body weight, measurement of the blood biochemical and hematology indicator, investigation of the gross anatomy, weighing of the organ, studying on toxicokinetic are performed on all the groups of the animals.\n(§3) Original data during each time period is tabulated. The average values and standard deviations and/or group change are calculated for each assay endpoint based on the group and sex. For each endpoint, the administrated group will be compared with the control group in the following aspect. A logarithmic conversion is performed to the endpoint data as desired prior to the start of the specific analyses."}, "[2]": {"format": "in vivo", "conditions": "rat, in vivo, male SD rats", "protocol": "as §1, §2, §3"}, "[3]": {"assay": "Pharmacokinetics in beagle dogs", "format": "in vivo", "conditions": "0.05 mg/kg", "protocol": "After subcutaneous administration to beagle dogs, plasma is collected and the drug concentration in plasma is determined to illustrate the in vivo pharmacokinetic properties of the compound according to the present invention. The compound of the present invention is administered to a beagle dog (7-9 kg) at a dose of 0.05 mg/kg subcutaneously (s.c.). About 500 μL of whole blood is collected from the saphenous vein into an EDTA-K2 anticoagulant tube at predose, 0.5 hours, 1 hour, 2 hours, 6 hours, 10 hours, 24 hours, 48 hours, 72 hours and 96 hours, respectively. The blood samples are centrifuged at 3000 g and at 2° C. to 8° C. for 10 minutes to obtain plasma, which is stored at −90° C. to −60° C. for further analysis and assay.\n20.0 μL of thawed plasma sample is taken. […] Then 120 μL of 0.1% formic acid methanol is added to precipitate the protein. The mixture is vortexed for 5 minutes, and centrifuged at 4815 g for 10 minutes. 100.0 μL of the supernatant is taken, into which 100 μL of 0.5% aqueous formic acid solution is added. The mixture is vortexed for 5 minutes. 10 μL of the mixture solution is sampled and injected into the LC-MS/MS to determine the drug concentration in plasma.\nBased on the drug concentration in plasma of the compound in the beagle dogs, the pharmacokinetic parameters are calculated by applying the software Winnolin 8.3 in a non-compartmental model."}, "[4]": {"assay": "Pharmacokinetics following single administration in SD rat", "set-up": "species or system SD rats", "conditions": "in vivo, sc, 50 nmol/kg", "protocol": "The compound is administrated to male SD rats (230-268 g, n=3) at a dose of 50.0 nmol/kg (s.c.) or 25.0 nmol/kg (i.v.). […] 30.0 μL of thawed plasma sample is taken. 150 μL of acetonitrile solution (containing 5 ng mL^−1 Verapamil, 50 ng·mL^−1 Glibenclamide, 200 ng·mL^−1 Tolbutamide and 200 ng·mL^−1 Diclofenac) are added to precipitate protein. The mixture is vortexed for 5 minutes, and centrifuged at 3700 rpm for 8 minutes. 70.0 μL of the supernatant is taken, into which 70.0 μL of 0.5% aqueous formic acid solution is added. The mixture is vortexed for 5 minutes. 15 μL of the mixture solution is sampled and injected into the LC-MS/MS to determine the drug concentration in plasma. 20.0 μL of thawed plasma sample is taken. 60 μL of acetonitrile solution (containing 5 ng mL^−1 Verapamil, 50 ng·mL^−1 Glibenclamide, 200 ng·mL^−1 Tolbutamide and 200 ng·mL^−1 Diclofenac) are added to precipitate protein. […] The mixture is vortexed for 10 minutes. 10.0 μL of the mixture solution is sampled and injected into the LC-MS/MS to determine the drug concentration in plasma. 30.0 μL of thawed plasma sample is taken. 150 μL of acetonitrile solution (containing 5 ng mL^−1 Verapamil, 50 ng mL^−1 Glibenclamide, 200 ng·mL^−1 Tolbutamide and 200 ng·mL^−1 Diclofenac) are added to precipitate protein. The mixture is vortexed for 5 minutes, and centrifuged at 3700 rpm for 8 minutes. 70.0 μL of the supernatant is taken, into which 70.0 μL of 0.5% aqueous formic acid solution is added. The mixture is vortexed for 5 minutes. 10.0 μL of the mixture solution is sampled and injected into the LC-MS/MS to determine the drug concentration in plasma."}, "[5]": {"assay": "Pharmacokinetics in C57 mice", "conditions": "mouse, in vivo", "protocol": "After subcutaneous or intravenous administration to C57 mice, plasma is collected and the drug concentration in plasma is determined to illustrate the in vivo pharmacokinetic properties of the compound according to the present invention. […] 20.0 μL of thawed plasma sample is taken. 20 μL of 50% aqueous methanol solution (containing 100 ng mL^−1 internal standard) and 60 μL of acetonitrile are added sequentially to precipitate protein. The mixture is vortexed for 5 minutes, and centrifuged at 3700 rpm for 8 minutes. 50.0 μL of the supernatant is taken, into which 50.0 μL of 0.5% aqueous formic acid solution is added. The mixture is vortexed for 5 minutes. 50 μL of the mixture solution is sampled and injected into the LC-MS/MS to determine the drug concentration in plasma."}, "[6]": {"conditions": "in vivo"}, "[7]": {"conditions": "male SD rats, twice a week for 2 weeks, 1, 3, 10 mg/kg"}},
  "note": "Like-named read-outs stand apart in the source and are kept apart here.",
  "data": [
    {"smiles": "CC[C@H](C)[C@H](NC(=O)C(C)(C)NC(=O)[C@H](Cc1ccc(O)cc1)NC(=O)[C@H](CC(=O)O)NC(=O)[C@H](CO)NC(=O)[C@@H](NC(=O)C(C)(Cc1ccccc1)NC(=O)[C@@H](NC(=O)CNC(=O)[C@H](CCC(=O)O)NC(=O)C(C)(C)NC(=O)[C@@H](N)Cc1ccc(O)cc1)[C@@H](C)O)[C@@H](C)O)C(=O)NC(C)(C)C(=O)N[C@@H](CC(C)C)C(=O)N[C@@H](CC(=O)O)C(=O)N[C@@H](CCCCN)C(=O)N[C@@H](CCC(N)=O)C(=O)N[C@@H](C)C(=O)N[C@@H](CCC(N)=O)C(=O)N[C@@H](C)C(=O)N[C@@H](CCC(=O)O)C(=O)N[C@@H](Cc1ccccc1)C(=O)N[C@H](C(=O)N[C@@H](CCCCNC(=O)COCCOCCNC(=O)COCCOCCNC(=O)COCCOCCNC(=O)CC[C@H](NC(=O)CCCCCCCCCCCCCCCCCCCCC(=O)O)C(=O)O)C(=O)N[C@@H](Cc1c[nH]c2ccccc12)C(=O)N[C@@H](CC(C)C)C(=O)N[C@@H](CC(C)C)C(=O)N[C@@H](CCCCN)C(=O)NCC(=O)NCC(=O)N1CCC[C@H]1C(=O)N[C@@H](CO)C(=O)N[C@@H](CO)C(=O)NCC(=O)N[C@@H](C)C(=O)N1CCC[C@H]1C(=O)N1CCC[C@H]1C(=O)N1CCC[C@H]1C(=O)N[C@@H](CO)C(=O)N[C@@H](CCCCN)C(N)=O)C(C)C", "note": "(some centres unmarked) [P016]", "values": [
      {"measurement": "MRT inf", "setting": "[1]; iv, 12.5 nmol/kg", "value": "72.9 ± 10.9", "unit": "h"},
      {"measurement": "MRT last", "setting": "[1]; iv, 12.5 nmol/kg", "value": "65.3 ± 8.85", "unit": "h"},
      {"measurement": "T1/2", "setting": "[1]; iv, 12.5 nmol/kg", "value": "59.81 ± 8.95", "unit": "h"},
      {"measurement": "MRT inf", "setting": "[1]; sc, 25 nmol/kg", "value": "101 ± 19.2", "unit": "h"},
      {"measurement": "MRT last", "setting": "[1]; sc, 25 nmol/kg", "value": "96.5 ± 15.9", "unit": "h"},
      {"measurement": "T1/2", "setting": "[1]; sc, 25 nmol/kg", "value": "60.40 ± 12.80", "unit": "h"},
      {"measurement": "Toxicokinetic: Cmax and AUC versus dose", "setting": "SD male rats; male SD rats, 1, 3, 10 mg/kg", "value": "increase nearly proportionally to the dose"},
      {"measurement": "Toxicokinetic: accumulation", "setting": "SD male rats; male SD rats, continuously administered twice a week for 2 weeks", "value": "no substantial accumulation"},
      {"measurement": "Food Intake", "setting": "SD male rats; [7]", "value": "dose-dependent decrease"},
      {"measurement": "Gross Anatomy", "setting": "SD male rats; [7]", "value": "no abnormalities are found"},
      {"measurement": "Safety Window (based on dosage)", "setting": "SD male rats; rat MTD for 2 weeks vs efficacy dose in db/db mice", "value": 1282},
      {"measurement": "MTD", "setting": "[2]; MTD for 2 weeks, twice a week", "value": 1.92, "unit": "µmol/kg"},
      {"measurement": "MTD", "setting": "[2]; continuously administered twice a week for 2 weeks", "value": "> 10", "unit": "mg/kg"},
      {"measurement": "AUC(0-t)", "setting": "[3]; beagle dogs, single subcutaneous administration, plasma", "value": 29925, "unit": "ng·h/mL"},
      {"measurement": "MRT inf", "setting": "[3]; dog, in vivo, sc", "value": "108 ± 23.2", "unit": "h"},
      {"measurement": "MRT last", "setting": "[3]; dog, in vivo, sc", "value": "44.8 ± 4.17", "unit": "h"},
      {"measurement": "T1/2", "setting": "[3]; dog, in vivo, sc", "value": 69.32, "unit": "h"},
      {"measurement": "MRT inf", "setting": "[4]", "value": "31.1 ± 1", "unit": "h"},
      {"measurement": "MRT last", "setting": "[4]", "value": "28.1 ± 1.12", "unit": "h"},
      {"measurement": "T1/2", "setting": "[4]", "value": "14.1 ± 0.153", "unit": "h"},
      {"measurement": "MRT inf", "setting": "[5]; iv", "value": 26.6, "unit": "h"},
      {"measurement": "MRT last", "setting": "[5]; iv", "value": 19.9, "unit": "h"},
      {"measurement": "MRT inf", "setting": "[5]; sc", "value": 35.9, "unit": "h"},
      {"measurement": "MRT last", "setting": "[5]; sc", "value": 26, "unit": "h"},
      {"measurement": "heart rate recovery time", "setting": "[6]", "value": "72 to 120", "unit": "h"},
      {"measurement": "increase in HR", "setting": "[6]", "value": "lower than that for Tirepatide"}
    ]}
  ]
}
